Key:
[1] = tested on: MDA MB435 breast carcinoma cells; experiment: MDA MB435 human breast carcinoma cell proliferation; assay type: cell-based
Method: Human breast carcinoma cells MDA MB435 (American Type Culture Collection) were grown in RPMI 1640 medium containing 10% fetal calf serum. Proliferation was determined as described in FIG. 18 and 44A, B and C.
Human breast carcinoma cells MDA MB435 (American Type Culture Collection) were grown in RPMI 1640 medium containing 10% fetal calf serum. Proliferation was determined in the presence of 0.5% fetal calf serum and bFGF as described in FIG. 19.

AIDS-KS cells = experiment: AIDS-KS cell chemotaxis, modified Boyden chamber; assay type: cell-based, human; conditions: added in the lower well
Method: Directed migration (chemotaxis) and general migration (chemokinesis) of AIDS-KS cells in culture was measured by the modified Boyden chamber assay using fibronectin coated […] Nucleopore filters as previously described. In brief, the AIDS-KS cells, were trypsinized then resuspended in RPMI 1640 containing […] (GIBCO-BRL) and 20% activated lymphocyte conditioned medium. The trypsinized cells were allowed to recover in suspension for 2 hours, then the cells were recovered by centrifugation and resuspended in RPMI 1640 containing 0.1% BS at 5×10^5 cells/ml prior to adding 100 μl to the upper wells in the chemotaxis chamber. Migration to BSA (0.1%) and OSM was performed in the presence of the indicated concentrations of TSP, and TSP peptide-FICOLL conjugates. After 3 hours incubation at 37° C. filters were stained with Diff Quick (Merz-Dade, Dudingen, Switzerland), and the migrated cells in ten high-power fields were counted. The values are triplicate determinations and the bars indicate standard deviations, n=3.

Molecule | inhibition of MDA435 proliferation, in words ([1]; FICOLL conjugate) | fold less active than native thrombospondin ([1]; from dose response curves, 0.5% fetal calf serum and bFGF) | activity relative to native thrombospondin on a subunit molar basis ([1]; subunit molar basis) | stimulation of AIDS-KS cell motility (AIDS-KS cells)
KRFKQDGGWSHWSPWSSC [Peptide 364] | strongly inhibited proliferation | approximately 10 fold | about three-fold less active | 
oncostatin M: growth factor, chemoattractant for AIDS-KS cells (protein, UniProt P13725 26-221, looked up) Oncostatin-M: AAIGSCSKEYRVLLGQLQKQTDLMQDTSRLLDPYIRIQGLDVPKLREHCRERPGAFPSEETLRGLGRRGFLQTLNATLGCVLHRLADLEQRLPKAQDLERSGLNIEDLEKLQMARPNILGLRNNIYCMAQLLDNSDTAEPTKAGRGASQPPTPTPASDAFQRKLEGCRFLHGYHRFMHSVGRVFSKWGESPNRSRR |  |  |  | simulated motility

Reference: patent US5770563A, “Heparin- and sulfatide binding peptides from the type I repeats of human thrombospondin and conjugates thereof” (The United States of America as represented by the …, priority 1995, dated 1998)
